Measurements published in PubChem BioAssay AID1963848 (Molecular Pharmacology Branch, DTP, NCI, 2024).
pIC50: −log10 of the molar value.

System: 379773-124-R-J2-PDC spheroid viability
Assay: Anticancer human tumor 379773-124-R-J2-PDC patient-derived endometrial carcinoma cell line growth inhibition [POLQ]
Details: spheroids with HUVEC and MSC; for pIC50: curve of first compound; for viability, T/C: stronger effect = lower value
In short: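 Complex spheroid viability model combining PDC tumour cells with endothelial (HUVEC) and MSC stromal cells. Novobiocin, ART-558 or RP6685 were tested singly and in combination with standard and investigational anticancer drugs. Each was titrated in half-log steps from near clinical Cmax, or from 10 microM where Cmax was unknown.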

[1] = second compound 0.0316 µM, first compound 0.0316 µM
[2] = second compound 0.0316 µM, first compound 0.1 µM
[3] = second compound 0.0316 µM, first compound 0.316 µM
[4] = second compound 0.0316 µM, first compound 1 µM
[5] = second compound 0.0316 µM, first compound 3.16 µM
[6] = second compound 0.0316 µM, first compound 10 µM
[7] = second compound 0.1 µM, first compound 0.0316 µM
[8] = second compound 0.1 µM, first compound 0.1 µM
[9] = second compound 0.1 µM, first compound 0.316 µM
[10] = second compound 0.1 µM, first compound 1 µM
[11] = second compound 0.1 µM, first compound 3.16 µM
[12] = second compound 0.1 µM, first compound 10 µM
[13] = second compound 0.316 µM, first compound 0.0316 µM
[14] = second compound 0.316 µM, first compound 0.1 µM
[15] = second compound 0.316 µM, first compound 0.316 µM
[16] = second compound 0.316 µM, first compound 1 µM
[17] = second compound 0.316 µM, first compound 3.16 µM
[18] = second compound 0.316 µM, first compound 10 µM
[19] = second compound 1 µM, first compound 0.0316 µM
[20] = second compound 1 µM, first compound 0.1 µM
[21] = second compound 1 µM, first compound 0.316 µM
[22] = second compound 1 µM, first compound 1 µM
[23] = second compound 1 µM, first compound 3.16 µM
[24] = second compound 1 µM, first compound 10 µM
[25] = second compound 3.16 µM, first compound 0.0316 µM
[26] = second compound 3.16 µM, first compound 0.1 µM
[27] = second compound 3.16 µM, first compound 0.316 µM
[28] = second compound 3.16 µM, first compound 1 µM
[29] = second compound 3.16 µM, first compound 3.16 µM
[30] = second compound 3.16 µM, first compound 10 µM
[31] = second compound 10 µM, first compound 0.0316 µM
[32] = second compound 10 µM, first compound 0.1 µM
[33] = second compound 10 µM, first compound 0.316 µM
[34] = second compound 10 µM, first compound 1 µM
[35] = second compound 10 µM, first compound 3.16 µM
[36] = second compound 10 µM, first compound 10 µM
[37] = second compound 0.0316 µM, first compound 0.00316 µM
[38] = second compound 0.0316 µM, first compound 0.01 µM
[39] = second compound 0.1 µM, first compound 0.00316 µM
[40] = second compound 0.1 µM, first compound 0.01 µM
[41] = second compound 0.316 µM, first compound 0.00316 µM
[42] = second compound 0.316 µM, first compound 0.01 µM
[43] = second compound 1 µM, first compound 0.00316 µM
[44] = second compound 1 µM, first compound 0.01 µM
[45] = second compound 3.16 µM, first compound 0.00316 µM
[46] = second compound 3.16 µM, first compound 0.01 µM
[47] = second compound 10 µM, first compound 0.00316 µM
[48] = second compound 10 µM, first compound 0.01 µM
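Note: spheroids exposed to drugs for seven days before readout.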
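Throughout, for viability, T/C: percent viability relative to DMSO vehicle control taken as 100%.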

O=C(c1cc(Cc2n[nH]c(=O)c3ccccc23)ccc1F)N1CCN(C(=O)C2CC2)CC1 + Nc1ccc(C#CCN(C(=O)Cc2ncc(C(F)(F)F)cc2C(F)(F)F)c2ccc(F)cc2)nn1
pIC50 (second compound 0.0316 µM): 5.03
pIC50 (second compound 0.1 µM): 5.05
pIC50 (second compound 0.316 µM): < 5.00
pIC50 (second compound 1 µM): 5.01
pIC50 (second compound 3.16 µM): < 5.00
pIC50 (second compound 10 µM): 5.00
viability, T/C [1]: 87.2%
viability, T/C [2]: 93.1%
viability, T/C [3]: 82.5%
viability, T/C [4]: 89.9%
viability, T/C [5]: 87.8%
viability, T/C [6]: 47.5%
viability, T/C [7]: 85.1%
viability, T/C [8]: 94.2%
viability, T/C [9]: 94%
viability, T/C [10]: 83%
viability, T/C [11]: 91.1%
viability, T/C [12]: 45.5%
viability, T/C [13]: 89.8%
viability, T/C [14]: 90%
viability, T/C [15]: 92.7%
viability, T/C [16]: 91.3%
viability, T/C [17]: 82%
viability, T/C [18]: 50.6%
viability, T/C [19]: 95.1%
viability, T/C [20]: 100%
viability, T/C [21]: 94%
viability, T/C [22]: 85.2%
viability, T/C [23]: 83.1%
viability, T/C [24]: 48.4%
viability, T/C [25]: 88.1%
viability, T/C [26]: 88.7%
viability, T/C [27]: 84.7%
viability, T/C [28]: 93.2%
viability, T/C [29]: 89.8%
viability, T/C [30]: 52.2%
viability, T/C [31]: 87.8%
viability, T/C [32]: 89.2%
viability, T/C [33]: 89.3%
viability, T/C [34]: 96.5%
viability, T/C [35]: 84.5%
viability, T/C [36]: 49.5%

COc1cccc(OCCCN)c1-c1cc(Nc2cnc(C#N)cn2)n[nH]1 + Cc1cccc(N(C)C(=O)C2C(O)CCN2c2nc(C)cc(C(F)(F)F)c2C#N)c1
pIC50 (second compound 0.0316 µM): 8.17
pIC50 (second compound 0.1 µM): 8.19
pIC50 (second compound 0.316 µM): 8.22
pIC50 (second compound 1 µM): 8.20
pIC50 (second compound 3.16 µM): 8.22
pIC50 (second compound 10 µM): 8.21
viability, T/C [37]: 87.1%
viability, T/C [38]: 30.5%
viability, T/C [1]: 2.41%
viability, T/C [2]: 2.05%
viability, T/C [3]: 1.74%
viability, T/C [4]: 1.59%
viability, T/C [39]: 92.8%
viability, T/C [40]: 23.4%
viability, T/C [7]: 3.34%
viability, T/C [8]: 3.31%
viability, T/C [9]: 2.36%
viability, T/C [10]: 1.82%
viability, T/C [41]: 85.5%
viability, T/C [42]: 22.3%
viability, T/C [13]: 3.19%
viability, T/C [14]: 1.9%
viability, T/C [15]: 1.95%
viability, T/C [16]: 2.25%
viability, T/C [43]: 93.4%
viability, T/C [44]: 21.1%
viability, T/C [19]: 3.23%
viability, T/C [20]: 2.53%
viability, T/C [21]: 2.26%
viability, T/C [22]: 3%
viability, T/C [45]: 84.3%
viability, T/C [46]: 23.2%
viability, T/C [25]: 3.07%
viability, T/C [26]: 2.7%
viability, T/C [27]: 2.36%
viability, T/C [28]: 0.99%
viability, T/C [47]: 88.8%
viability, T/C [48]: 22.1%
viability, T/C [31]: 4.5%
viability, T/C [32]: 4.11%
viability, T/C [33]: 2.59%
viability, T/C [34]: 2.26%

CCc1c2c(nc3ccc(O)cc13)-c1cc3c(c(=O)n1C2)COC(=O)[C@]3(O)CC + Nc1ccc(C#CCN(C(=O)Cc2ncc(C(F)(F)F)cc2C(F)(F)F)c2ccc(F)cc2)nn1
pIC50 (second compound 0.0316 µM): > 8.50
pIC50 (second compound 0.1 µM): 8.45
pIC50 (second compound 0.316 µM): > 8.50
pIC50 (second compound 1 µM): > 8.50
pIC50 (second compound 3.16 µM): > 8.50
pIC50 (second compound 10 µM): > 8.50
viability, T/C [37]: 45.5%
viability, T/C [38]: 17.6%
viability, T/C [1]: 12.6%
viability, T/C [2]: 4.69%
viability, T/C [3]: 3.2%
viability, T/C [4]: 1.03%
viability, T/C [39]: 53.6%
viability, T/C [40]: 16.7%
viability, T/C [7]: 13.1%
viability, T/C [8]: 4.92%
viability, T/C [9]: 1.48%
viability, T/C [10]: 0.65%
viability, T/C [41]: 48.6%
viability, T/C [42]: 12.6%
viability, T/C [13]: 11.1%
viability, T/C [14]: 4.23%
viability, T/C [15]: 1.5%
viability, T/C [16]: 0.7%
viability, T/C [43]: 47.8%
viability, T/C [44]: 13.7%
viability, T/C [19]: 10.4%
viability, T/C [20]: 5.54%
viability, T/C [21]: 1.41%
viability, T/C [22]: 3.04%
viability, T/C [45]: 47.9%
viability, T/C [46]: 15.1%
viability, T/C [25]: 9.79%
viability, T/C [26]: 3.28%
viability, T/C [27]: 1.52%
viability, T/C [28]: 0.83%
viability, T/C [47]: 41.9%
viability, T/C [48]: 14.7%
viability, T/C [31]: 11.6%
viability, T/C [32]: 4.49%
viability, T/C [33]: 1.89%
viability, T/C [34]: 0.9%

O=C(Nc1ccc(O)c(NS(=O)(=O)c2ccc(F)cc2)c1)c1ccc(-c2ccccc2)cc1 + Nc1ccc(C#CCN(C(=O)Cc2ncc(C(F)(F)F)cc2C(F)(F)F)c2ccc(F)cc2)nn1
pIC50 (second compound 0.0316 µM): < 5.00
pIC50 (second compound 0.1 µM): < 5.00
pIC50 (second compound 0.316 µM): < 5.00
pIC50 (second compound 1 µM): < 5.00
pIC50 (second compound 3.16 µM): < 5.00
pIC50 (second compound 10 µM): < 5.00
viability, T/C [1]: 85%
viability, T/C [2]: 92.1%
viability, T/C [3]: 85.8%
viability, T/C [4]: 91.5%
viability, T/C [5]: 89.8%
viability, T/C [6]: 77.5%
viability, T/C [7]: 89.8%
viability, T/C [8]: 81.8%
viability, T/C [9]: 90.8%
viability, T/C [10]: 82.6%
viability, T/C [11]: 89%
viability, T/C [12]: 79.3%
viability, T/C [13]: 91.9%
viability, T/C [14]: 90.4%
viability, T/C [15]: 84.1%
viability, T/C [16]: 88.7%
viability, T/C [17]: 92.2%
viability, T/C [18]: 79.6%
viability, T/C [19]: 96.6%
viability, T/C [20]: 96.4%
viability, T/C [21]: 89.1%
viability, T/C [22]: 83.2%
viability, T/C [23]: 93.8%
viability, T/C [24]: 81%
viability, T/C [25]: 94.4%
viability, T/C [26]: 86.3%
viability, T/C [27]: 88.8%
viability, T/C [28]: 86.2%
viability, T/C [29]: 86.7%
viability, T/C [30]: 79.4%
viability, T/C [31]: 94.2%
viability, T/C [32]: 87.6%
viability, T/C [33]: 87%
viability, T/C [34]: 85.2%
viability, T/C [35]: 86.5%
viability, T/C [36]: 71.9%
